Values quoted from earlier work in patent publication US20230203007A1, “PYRIDINYLACETAMIDE DERIVATIVES AS SODIUM CHANNEL ACTIVATORS” (priority 2021, published 2023).

Key:
[1] = biological target: T1, Nav1.1 (Homo sapiens, UniProt P35498); conditions: Nav1.1-expressing HEK cells
T1 construct: host or cells: HEK cells

[2] = biological target: Nav1.2 (Homo sapiens, UniProt Q99250); conditions: relative to Nav1.1 activation
[3] = biological target: Nav1.5 (Homo sapiens, UniProt Q14524); conditions: relative to Nav1.1 activation
Nav1.5, sequence (Q14524 whole entry): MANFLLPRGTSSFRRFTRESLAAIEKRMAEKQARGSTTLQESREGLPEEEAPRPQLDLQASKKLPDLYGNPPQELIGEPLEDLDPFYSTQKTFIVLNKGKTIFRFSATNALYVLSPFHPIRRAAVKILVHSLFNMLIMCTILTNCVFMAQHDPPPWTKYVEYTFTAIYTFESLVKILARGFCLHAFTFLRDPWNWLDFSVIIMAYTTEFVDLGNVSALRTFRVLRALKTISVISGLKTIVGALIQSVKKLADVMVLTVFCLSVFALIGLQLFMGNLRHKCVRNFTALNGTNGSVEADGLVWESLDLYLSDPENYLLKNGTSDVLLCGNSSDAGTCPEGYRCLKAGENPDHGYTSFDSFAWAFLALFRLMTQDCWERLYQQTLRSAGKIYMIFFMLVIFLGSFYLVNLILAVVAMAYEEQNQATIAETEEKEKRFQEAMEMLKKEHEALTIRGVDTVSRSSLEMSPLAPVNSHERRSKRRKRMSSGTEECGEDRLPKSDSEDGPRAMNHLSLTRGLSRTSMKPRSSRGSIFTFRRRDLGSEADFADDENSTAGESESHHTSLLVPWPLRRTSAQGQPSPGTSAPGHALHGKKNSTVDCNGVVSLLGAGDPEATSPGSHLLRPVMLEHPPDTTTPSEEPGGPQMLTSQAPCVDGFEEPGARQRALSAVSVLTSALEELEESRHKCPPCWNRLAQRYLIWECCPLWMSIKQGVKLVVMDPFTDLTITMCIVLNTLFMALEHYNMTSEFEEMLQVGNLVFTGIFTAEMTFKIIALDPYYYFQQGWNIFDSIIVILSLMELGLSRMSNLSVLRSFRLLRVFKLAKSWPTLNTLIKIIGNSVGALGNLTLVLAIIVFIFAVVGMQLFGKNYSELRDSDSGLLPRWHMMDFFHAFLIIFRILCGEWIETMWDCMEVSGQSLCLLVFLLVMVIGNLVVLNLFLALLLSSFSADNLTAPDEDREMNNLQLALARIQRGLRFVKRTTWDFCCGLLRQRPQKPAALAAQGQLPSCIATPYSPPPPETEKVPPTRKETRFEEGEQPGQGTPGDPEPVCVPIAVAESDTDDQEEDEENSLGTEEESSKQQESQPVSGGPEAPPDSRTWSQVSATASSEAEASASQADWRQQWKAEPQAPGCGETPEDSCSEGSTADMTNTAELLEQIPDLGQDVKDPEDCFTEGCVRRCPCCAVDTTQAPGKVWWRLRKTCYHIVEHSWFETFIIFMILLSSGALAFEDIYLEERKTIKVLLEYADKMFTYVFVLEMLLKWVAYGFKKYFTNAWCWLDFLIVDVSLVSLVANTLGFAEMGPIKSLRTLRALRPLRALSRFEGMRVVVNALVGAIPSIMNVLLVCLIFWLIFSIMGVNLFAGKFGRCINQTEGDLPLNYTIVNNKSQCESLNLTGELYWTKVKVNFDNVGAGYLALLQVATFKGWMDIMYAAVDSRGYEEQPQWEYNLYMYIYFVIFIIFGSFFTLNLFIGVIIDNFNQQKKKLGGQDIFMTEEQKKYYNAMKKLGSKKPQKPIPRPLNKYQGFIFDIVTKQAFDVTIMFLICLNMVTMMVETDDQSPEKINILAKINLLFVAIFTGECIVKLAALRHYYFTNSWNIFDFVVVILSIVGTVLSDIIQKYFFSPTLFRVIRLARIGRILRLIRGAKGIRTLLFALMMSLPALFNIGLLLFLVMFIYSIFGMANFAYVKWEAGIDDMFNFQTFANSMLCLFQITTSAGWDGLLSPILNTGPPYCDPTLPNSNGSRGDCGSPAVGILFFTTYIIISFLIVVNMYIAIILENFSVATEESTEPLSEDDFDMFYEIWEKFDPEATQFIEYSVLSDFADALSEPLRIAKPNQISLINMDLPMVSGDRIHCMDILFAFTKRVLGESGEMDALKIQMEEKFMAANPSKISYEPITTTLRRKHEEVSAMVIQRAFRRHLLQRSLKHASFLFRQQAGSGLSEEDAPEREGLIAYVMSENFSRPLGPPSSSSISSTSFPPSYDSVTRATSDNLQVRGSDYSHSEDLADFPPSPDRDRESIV

Nav1.2, sequence (Q99250 whole entry): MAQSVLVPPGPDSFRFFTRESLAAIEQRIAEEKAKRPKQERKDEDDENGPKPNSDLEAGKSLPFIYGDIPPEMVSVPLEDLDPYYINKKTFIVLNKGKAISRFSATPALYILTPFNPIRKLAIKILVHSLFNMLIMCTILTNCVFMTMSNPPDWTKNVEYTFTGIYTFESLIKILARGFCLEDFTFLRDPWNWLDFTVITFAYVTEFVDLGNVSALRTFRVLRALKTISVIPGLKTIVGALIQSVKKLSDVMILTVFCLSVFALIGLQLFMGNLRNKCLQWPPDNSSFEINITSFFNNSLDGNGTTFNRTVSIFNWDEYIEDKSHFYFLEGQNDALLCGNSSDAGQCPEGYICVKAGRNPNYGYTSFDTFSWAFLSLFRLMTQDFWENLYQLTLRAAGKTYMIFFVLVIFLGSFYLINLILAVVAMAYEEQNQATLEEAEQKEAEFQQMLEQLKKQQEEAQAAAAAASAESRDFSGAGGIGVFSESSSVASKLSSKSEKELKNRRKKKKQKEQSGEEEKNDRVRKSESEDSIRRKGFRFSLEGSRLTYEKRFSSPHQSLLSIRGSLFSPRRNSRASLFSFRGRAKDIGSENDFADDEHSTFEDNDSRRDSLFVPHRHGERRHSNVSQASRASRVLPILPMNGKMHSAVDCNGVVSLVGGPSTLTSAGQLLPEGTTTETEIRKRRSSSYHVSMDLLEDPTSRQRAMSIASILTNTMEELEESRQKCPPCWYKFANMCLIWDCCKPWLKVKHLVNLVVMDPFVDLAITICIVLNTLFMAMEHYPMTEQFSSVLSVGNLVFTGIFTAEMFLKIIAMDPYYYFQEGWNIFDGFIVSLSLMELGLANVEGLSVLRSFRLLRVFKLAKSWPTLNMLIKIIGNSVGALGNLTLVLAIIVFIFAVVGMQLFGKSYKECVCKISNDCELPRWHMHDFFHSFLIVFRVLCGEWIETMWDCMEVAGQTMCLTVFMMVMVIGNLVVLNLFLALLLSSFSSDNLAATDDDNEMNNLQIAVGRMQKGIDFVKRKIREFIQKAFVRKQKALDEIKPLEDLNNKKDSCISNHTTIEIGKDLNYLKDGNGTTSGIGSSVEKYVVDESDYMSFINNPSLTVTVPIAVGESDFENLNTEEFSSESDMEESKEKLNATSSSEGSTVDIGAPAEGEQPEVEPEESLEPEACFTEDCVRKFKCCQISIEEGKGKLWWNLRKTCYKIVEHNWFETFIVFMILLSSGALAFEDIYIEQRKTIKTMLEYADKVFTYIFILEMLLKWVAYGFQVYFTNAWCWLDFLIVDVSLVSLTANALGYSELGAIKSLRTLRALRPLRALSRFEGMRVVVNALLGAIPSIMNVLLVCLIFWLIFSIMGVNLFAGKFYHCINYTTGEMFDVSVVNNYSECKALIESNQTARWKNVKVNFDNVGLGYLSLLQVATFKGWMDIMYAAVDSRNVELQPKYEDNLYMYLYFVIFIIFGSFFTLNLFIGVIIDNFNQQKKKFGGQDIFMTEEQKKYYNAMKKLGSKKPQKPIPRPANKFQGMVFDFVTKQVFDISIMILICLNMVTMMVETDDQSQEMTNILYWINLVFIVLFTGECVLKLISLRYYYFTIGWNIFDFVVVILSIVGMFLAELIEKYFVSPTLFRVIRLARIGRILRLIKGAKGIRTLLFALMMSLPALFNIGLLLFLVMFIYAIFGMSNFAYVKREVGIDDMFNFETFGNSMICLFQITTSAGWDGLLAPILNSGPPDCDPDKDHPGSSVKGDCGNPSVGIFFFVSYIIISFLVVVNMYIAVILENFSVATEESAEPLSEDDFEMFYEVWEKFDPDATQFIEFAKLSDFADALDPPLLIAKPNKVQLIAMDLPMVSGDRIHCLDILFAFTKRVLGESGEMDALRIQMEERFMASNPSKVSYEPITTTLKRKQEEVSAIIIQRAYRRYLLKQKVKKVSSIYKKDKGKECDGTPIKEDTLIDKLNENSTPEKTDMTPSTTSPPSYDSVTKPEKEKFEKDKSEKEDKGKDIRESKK

CCCCNS(=O)(=O)c1ccc(OC)c(-c2nnc3c4ccccc4c(C)nn23)c1 [Lu AE98134]
concentration from which the total area under the curve for the duration of the depolarizing pulse is increased [1]: ≥ 1 µM
selectivity against Nav1.2 [2]: moderate selectivity
selectivity against Nav1.5 [3]: low selectivity
